Series [1] can be described thus: Inhibition of baker's yeast alpha-glucosidase type-1 using p-nitrophenyl-alpha-D-glucopyranoside as substrate preincubated for 30 mins followed by substrate addition measured after 20 mins by microplate reader analysis. Also on record: species or system Saccharomyces cerevisiae.
Series [2] addresses T1, Sucrase-isomaltase, intestinal (Rattus norvegicus, UniProt P23739). As to the kind of experiment: Inhibition of rat intestinal Sucrase using sucrose as substrate assessed as glucose release after 40 mins by glucose oxidase method.
Series [3] is described as follows: Antioxidant activity assessed as DPPH radical scavenging activity incubated for 30 mins in dark condition by spectrophotometric analysis. The conditions noted are these: 0.5 h. In kind it is physicochemical. (In general: The DPPH test is a chemical assay of radical scavenging.)
The target of series [4] is T1, Sucrase-isomaltase, intestinal. As to the kind of experiment: Competitive inhibition of rat intestinal Sucrase using sucrose as substrate assessed as glucose release after 40 mins by Lineweaver-Burk plot analysis.
Series [5] has the same target. As to the kind of experiment: Non-competitive inhibition of rat intestinal Sucrase using sucrose as substrate assessed as glucose release after 40 mins by Lineweaver-Burk plot analysis.

The results in this text go back to ChEMBL document CHEMBL3621193, “New arylalkanones from Horsfieldia macrobotrys, effective antidiabetic agents concomitantly inhibiting α-glucosidase and free radicals” (Bioorg Med Chem Lett, 2015).

T1 sequence (P23739 1-1013 limits assumed): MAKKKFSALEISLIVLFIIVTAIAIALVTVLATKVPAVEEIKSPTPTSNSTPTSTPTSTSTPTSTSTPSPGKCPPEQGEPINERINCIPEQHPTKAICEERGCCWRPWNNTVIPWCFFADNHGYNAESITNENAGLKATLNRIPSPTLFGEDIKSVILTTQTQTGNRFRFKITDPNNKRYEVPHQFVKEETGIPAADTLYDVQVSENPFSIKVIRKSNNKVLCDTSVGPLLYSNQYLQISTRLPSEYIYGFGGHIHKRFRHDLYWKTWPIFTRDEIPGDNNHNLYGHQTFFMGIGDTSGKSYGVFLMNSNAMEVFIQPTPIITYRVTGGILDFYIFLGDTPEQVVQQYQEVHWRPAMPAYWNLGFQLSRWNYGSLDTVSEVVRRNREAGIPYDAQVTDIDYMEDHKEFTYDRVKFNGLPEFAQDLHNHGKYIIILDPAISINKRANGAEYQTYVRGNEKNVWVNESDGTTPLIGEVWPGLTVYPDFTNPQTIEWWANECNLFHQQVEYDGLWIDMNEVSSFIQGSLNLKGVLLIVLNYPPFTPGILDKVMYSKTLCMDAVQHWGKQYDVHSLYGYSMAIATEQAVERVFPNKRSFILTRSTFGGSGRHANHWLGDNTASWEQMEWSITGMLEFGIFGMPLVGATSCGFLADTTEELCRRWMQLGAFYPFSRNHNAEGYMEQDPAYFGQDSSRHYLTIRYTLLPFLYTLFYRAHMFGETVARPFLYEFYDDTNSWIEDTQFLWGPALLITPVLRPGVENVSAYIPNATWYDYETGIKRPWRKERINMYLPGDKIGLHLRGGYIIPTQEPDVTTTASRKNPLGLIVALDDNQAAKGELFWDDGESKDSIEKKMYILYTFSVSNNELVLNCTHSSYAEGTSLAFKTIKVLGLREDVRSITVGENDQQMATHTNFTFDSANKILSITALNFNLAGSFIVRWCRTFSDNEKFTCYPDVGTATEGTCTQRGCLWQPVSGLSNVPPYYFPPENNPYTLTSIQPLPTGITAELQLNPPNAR
T1 sequence (P23739 1014-1841 limits assumed): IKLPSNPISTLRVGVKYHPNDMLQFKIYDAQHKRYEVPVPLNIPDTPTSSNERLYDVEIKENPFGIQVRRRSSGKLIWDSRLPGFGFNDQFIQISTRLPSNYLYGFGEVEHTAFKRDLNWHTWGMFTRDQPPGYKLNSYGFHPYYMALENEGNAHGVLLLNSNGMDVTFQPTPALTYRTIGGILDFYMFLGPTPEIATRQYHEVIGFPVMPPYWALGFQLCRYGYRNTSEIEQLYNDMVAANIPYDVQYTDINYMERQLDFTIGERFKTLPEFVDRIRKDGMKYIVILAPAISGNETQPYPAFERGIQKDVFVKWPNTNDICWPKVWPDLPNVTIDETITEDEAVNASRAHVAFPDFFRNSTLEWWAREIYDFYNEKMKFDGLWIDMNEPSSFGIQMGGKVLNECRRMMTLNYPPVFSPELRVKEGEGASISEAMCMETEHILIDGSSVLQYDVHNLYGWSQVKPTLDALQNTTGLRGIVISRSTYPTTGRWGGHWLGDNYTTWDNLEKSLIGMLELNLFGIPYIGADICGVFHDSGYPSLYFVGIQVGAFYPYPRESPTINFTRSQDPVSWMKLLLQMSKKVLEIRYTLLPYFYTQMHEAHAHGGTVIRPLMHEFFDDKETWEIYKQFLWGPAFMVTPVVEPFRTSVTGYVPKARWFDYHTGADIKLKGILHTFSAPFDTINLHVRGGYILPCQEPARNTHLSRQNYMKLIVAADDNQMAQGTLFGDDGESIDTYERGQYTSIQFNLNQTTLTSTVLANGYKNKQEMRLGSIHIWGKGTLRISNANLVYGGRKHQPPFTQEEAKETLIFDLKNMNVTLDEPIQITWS

For the compound `O=C(CCCCCCC[C@H](O)c1ccccc1)c1c(O)cc(O)cc1O`, the IC50 came to 22.6 µM in series [1] (read-out: IC50) and 94.9 µM in series [2] (read-out: IC50). In addition, the SC50 in series [3] is reported as 1.6 mM. Moreover, the Ki in series [4] came out at 1.09 mM; in series [5] it was 540 µM.
Taken in the same sequence, the figures for `O=C(CCCCCCC[C@H](O)c1ccccc1)c1c(O)cc(O)c(C(CCc2ccccc2)c2ccc(O)cc2O)c1O` (stereo partly drawn) were 5.65 µM, 47.4 µM, 0.43 mM, 3.07 mM and 380 µM.
For the compound `O=C1C[C@@H](c2ccccc2)Oc2c1c(O)cc(O)c2[C@@H]1O[C@H](CO)[C@@H](O)[C@H](O)[C@H]1O`, the IC50 was 529 µM in series [1] (read-out: IC50) and “Not Active” in series [2]. Also, in series [3], the SC50 was determined as 6.76 mM.
Consider `C[C@H]1O[C@H](O[C@H]2[C@H](O)[C@@H](O)[C@@H](O[C@H]3[C@H](O)[C@@H](O)C(O)O[C@@H]3CO)O[C@@H]2CO)[C@H](O)[C@@H](O)[C@@H]1N[C@H]1C=C(CO)[C@@H](O)[C@H](O)[C@H]1O` (stereo partly drawn) [ACARBOSE], for which the IC50 in series [1] (read-out: IC50) amounted to 103 µM. The SC50 result in series [3] is recorded as “Not Active”.
In the case of `O=C1O[C@H]([C@@H](O)CO)C(O)=C1O` [ASCORBIC ACID], the IC50 entry in series [1] and in series [2] was “Not Active” throughout. Further, the SC50 in series [3] is listed as 2.45 mM.

What is called IC50 is the concentration that gives 50% inhibition. The term Ki denotes the dissociation constant of the complex between target and ligand, obtained from inhibition or displacement.
